The values that follow come from patent US20210253575A1, “PYRROLIDINE AMINE COMPOUNDS FOR THE TREATMENT OF AUTOIMMUNE DISEASE” (Hoffmann-La Roche Inc., priority 2018, published 2021).

pIC50: −log10 of the molar value.

In the experiment the target is T1, human TLR8 (Homo sapiens, UniProt Q9NR97).
T1 sequence (Q9NR97 27-1041): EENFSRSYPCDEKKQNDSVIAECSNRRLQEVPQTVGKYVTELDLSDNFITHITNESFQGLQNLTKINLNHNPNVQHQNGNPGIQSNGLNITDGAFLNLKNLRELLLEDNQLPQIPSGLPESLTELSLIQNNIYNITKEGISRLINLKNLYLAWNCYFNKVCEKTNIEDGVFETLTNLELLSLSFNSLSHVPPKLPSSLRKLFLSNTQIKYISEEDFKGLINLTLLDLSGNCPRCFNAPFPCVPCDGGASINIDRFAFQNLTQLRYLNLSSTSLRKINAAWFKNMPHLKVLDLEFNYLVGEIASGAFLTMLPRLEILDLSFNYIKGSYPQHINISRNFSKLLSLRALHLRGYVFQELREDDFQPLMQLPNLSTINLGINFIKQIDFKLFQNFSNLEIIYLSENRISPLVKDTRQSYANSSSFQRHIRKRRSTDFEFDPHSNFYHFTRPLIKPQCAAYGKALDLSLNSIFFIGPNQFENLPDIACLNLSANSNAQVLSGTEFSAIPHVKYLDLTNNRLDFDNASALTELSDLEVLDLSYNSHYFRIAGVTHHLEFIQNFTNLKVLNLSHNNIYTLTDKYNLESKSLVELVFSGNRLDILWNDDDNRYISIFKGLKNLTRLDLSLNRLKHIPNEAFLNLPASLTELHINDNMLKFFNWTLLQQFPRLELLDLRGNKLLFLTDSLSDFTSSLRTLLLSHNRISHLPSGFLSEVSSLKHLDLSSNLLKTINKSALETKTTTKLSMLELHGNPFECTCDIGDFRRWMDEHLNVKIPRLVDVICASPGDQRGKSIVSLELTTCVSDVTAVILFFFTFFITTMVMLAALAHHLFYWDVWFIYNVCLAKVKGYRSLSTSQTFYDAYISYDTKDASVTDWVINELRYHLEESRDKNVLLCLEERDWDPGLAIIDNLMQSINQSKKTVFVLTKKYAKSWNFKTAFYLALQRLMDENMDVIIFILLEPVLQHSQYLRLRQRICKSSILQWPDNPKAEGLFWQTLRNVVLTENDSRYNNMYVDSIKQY
As to the kind of experiment: HEK293-Blue-hTLR-8 cells assay (SEAP reporter, R848 stimulation). It is filed as cell-based. The following applies: HEK293-Blue-hTLR8 cells, R848 ligand, 20 hrs incubation. Summed up:
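Antagonism was measured in HEK293-Blue-hTLR8 cells with an NF-κB/AP-1-driven SEAP reporter. Cells were stimulated with R848 (10 μL of 60 uM stock) alongside compound (1% DMSO) for 20 hrs at 37° C. Supernatant SEAP was read with QUANTI-Blue after 2 hrs, absorbance at 620-655 nm.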
On to `N#Cc1ccc(N2CC(CN3CCNCC3)C3(CC3)C2)c2nccnc12` (centres unmarked) [Example 3, 8-[7-(piperazin-1-ylmethyl)-5-azaspiro[2.4]heptan-5-yl]quinoxaline-5-carbonitrile], for which the pIC50 (as a rule, the IC50 on a negative log10 scale, so that one unit is a factor of ten) was 7.92.

`N#Cc1ccc(N2CC(CN3CC4CCC(C3)C4N)C3(CC3)C2)c2nccnc12` (centres unmarked) [Example 4, 8-[7-[(8-Amino-3-azabicyclo[3.2.1]octan-3-yl)methyl]-5-azaspiro[2.4]heptan-5-yl]quinoxaline-5-carbonitrile]: the pIC50 is 7.42.

Take `CN(C)[C@@H]1CCN(C[C@H]2CN(c3ccc(C#N)c4nccnc34)C[C@@H]2C(F)(F)F)C1` [Example 83, 8-[(3S,4R)-3-[[(3R)-3-(dimethylamino)pyrrolidin-1-yl]methyl]-4-(trifluoromethyl)pyrrolidin-1-yl]quinoxaline-5-carbonitrile]: the pIC50 was 7.19.

`CN1CCC2(CCN(C[C@H]3CN(c4ccc(C#N)c5nccnc45)C[C@@H]3C(F)(F)F)C2)C1` (stereo partly drawn) [Example 84, 8-[(3S,4R)-3-[(7-methyl-2,7-diazaspiro[4.4]nonan-2-yl)methyl]-4-(trifluoromethyl)pyrrolidin-1-yl]quinoxaline-5-carbonitrile] had a negative-log IC50 (pIC50) of 7.24.

`CC1(CN)CCN(C[C@H]2CN(c3ccc(C#N)c4nccnc34)C[C@@H]2C(F)(F)F)C1` (stereo partly drawn) [Example 85, 8-[(3S,4R)-3-[[3-(aminomethyl)-3-methyl-pyrrolidin-1-yl]methyl]-4-(trifluoromethyl)pyrrolidin-1-yl]quinoxaline-5-carbonitrile] gave a pIC50 of 7.12.
